pIC50: −log10 of the molar value.
Experiments:
Trypanosoma cruzi = experiment: Antitrypanosomal assay (beta-galactosidase reporter, intracellular amastigotes in Vero cells); type: cell-based; conditions: Tulahuen clone C4, intracellular amastigotes in Vero cells, 120 h; for pIC50: Trypanosoma cruzi, read-out: Trypanosoma cruzi IC50; as to all read-outs here: key: I: Inactive
Description: Briefly, the expression of the reporter gene for beta-galactosidase (β-Gal) in the Tulahuen clone C4 of T. cruzi is assessed by colorimetry at 570 nm, which correlates with the parasite growth. Assays were performed on the intracellular amastigote form of the parasite infecting African green monkey kidney (Vero) cells, incubated for 120 h at 37 °C with 5% CO2.

Plasmodium falciparum = experiment: Antiplasmodial assay (PicoGreen growth inhibition in infected human erythrocytes); type: cell-based; conditions: Erythrocyte, in vitro, W2 and 3D7 strains cultured, strain of the values not stated, read-out: Plasmodium falciparum IC50
Description: Activity against the causative agent of malaria was performed by culturing human erythrocytes and infecting them with P. falciparum, as described by Trager and Jensen[36]. Briefly, the W2 (Chloroquine resistant) and 3D7 (Chloroquine sensitive) strains of P. falciparum were cultured in RPMI 1640 medium (Sigma-Aldrich, USA) supplemented with 10% human serum (from O+ blood) at a hematocrit of 2% erythrocytes (O+) at 37 °C in a gas mixture of 5% CO2, 5% O2, and 90% N2. Parasites were synchronized by a temperature cycling technique as described by Almanza et al.[37]

Vero cells = experiment: Toxicity against Vero cells (MTT); type: cell-based, African green monkey; conditions: in vitro toxicity against mammalian kidney cell line (Vero)
Description: (§1) It should be emphasized that toxicity is a major concern of drug discovery and development. The above active compounds were evaluated for in vitro toxicity against a mammalian kidney cell line (Vero). The selectivity index (SI) was used as the evaluation parameter of drug potential of the test samples by comparing the toxicity on the Vero cell line (CC50) and the selective inhibitory effect on P. falciparum, L. donovani or T. cruzi (IC50) calculated here as CC50/IC50.
(§2) Adriamycin was used as a positive control.

[1] = Toxicity against Vero cells (MTT); type: cell-based, African green monkey; conditions: African green monkey, MTT, 48 h
Description: as §1, §2

Leishmania donovani = experiment: Antileishmanial assay (PicoGreen); type: cell-based; conditions: in vitro, read-out: Leishmania donovani IC50
Description: The anti-leishmania activity was evaluated following the protocol described by Calderon et al.[39], using the fluorescent DNA intercalator PicoGreen (Invitrogen, USA). The species responsible for visceral leishmaniasis, L. donovani, was used for the assays.

[2] = Cytotoxicity SRB assay, HeLa; conditions: human
Description: (§3) All of the compounds were also evaluated for their cytotoxic properties against six human cancer cell lines (lung carcinoma epithelian (A549), colon carcinoma (HCT-116), pancreatic carcinoma (BXPC-3), breast cancer (MCF-7), cervical epithelium (HeLa), and erythroleukemic (K562)) and a human umbilical vein endothelial cell (HUVEC) line (Table 2).
(§4) The cytotoxicity against HCT-116, BXPC-3, HeLa, MCF-7, A-549, and HUVEC cell lines was evaluated using the SRB method. The cytotoxicity against K562 and Vero cell lines was evaluated using the MTT method. Adriamycin was used as a positive control. All cells were cultivated in T-75 flasks containing 10% Fetal Bovine Serum (FBS), Dulbeco’s Modified Eagle Medium (DMEM) with 2 mM L-glutamine, and 1% penicillin-streptomycin at 37 °C in a humidified atmosphere with 5% CO2. For SRB assay, cells in their log phase of growth were seeded into 96 well micro plates (4 × 10^4 cells per well) and followed by treating with test samples at 10 μM or DMSO. After incubation at 37 °C for 72 h, the cells were fixed with the cold 20% (w/v) TCA for 2 h and stained with Sulforhodamine B (SRB) dye for 0.5 h. The protein-bound dye is dissolved in Tris base solution for OD determination at 540 nm on an ELISA Plate Reader. For MTT assay, cells (5 × 10^3 cells per well) were plated in 96 well micro plates. After cell attachment overnight, new medium containing test compounds or DMSO was added. The plate was incubated for 48 h at 37 °C and incubated with 3-(4,5-dimethylthiazol-2-yl)-2,5-diphenyltetrazolium bromide (MTT) for additional 2–4 hours. The assay plate was then read at 490 nm on an ELISA Plate Reader. The data were obtained from experiments carried out in triplicate.

[3] = Cytotoxicity against the panel of six human cancer cell lines and HUVEC
Description: as §3, §4

[4] = Cytotoxicity MTT assay, K562; conditions: human
Description: as §3, §4

[5] = Chemical stability / interconversion in solvents; type: physicochemical; conditions: MeOH, EtOH, MeOH-d4 (except H2O), stationary state, within a week
Description: Compounds 1–6 and 11–27 were designed and synthesized through one or two-step semisynthetic reaction with high yields ranging from 65–95% from 7 and 8 (Fig. 1). The structures of new derivatives 12, 14–19, 21–22, 24, and 27 were identified by extensive spectroscopic methods including HRESIMS, ^1H NMR, and ^13C NMR. Compound 1 was prepared in yield of 95% through one-step acetonide reaction from 8. Other acetonide derivatives (11, 17, 18, 20, 23, 25, and 26) were also prepared with the same yields. Chlorination of compound 8 with sulfuryl chloride[33] followed by selective reduction with 10% Pd-C under H2 atmosphere led to the natural compound 2 (68%, yield). Acylation reaction was carried out by reaction of anhydride with the corresponding materials (1–3, and 6–8) in high yields (85–95%). In order to prepare 6, oxidation of the allyl alcohol 8 was examined under various oxidation conditions (PCC, PDC, MnO2, DMP, and IBX). However, only DMP and IBX enabled the selective oxidation of the allyl alcohol to give 6 in 65% and 35% yields, respectively (Fig. 3). […] Compounds 3–6 are diastereomers differing from each other by the absolute configurations of the 4′, 5′-diol chiral centers. The proportions of compounds 3–6 were in dynamic equilibrium, and the final ratios of 3–6 were approximately 8: 2: 5: 6 (Fig. 4). […]

[6] = Cytotoxicity SRB assay, A-549; conditions: human
Description: as §3, §4

[7] = Cytotoxicity SRB assay, BXPC-3; conditions: human
Description: as §3, §4

[8] = Cytotoxicity SRB assay, MCF-7; conditions: human
Description: as §3, §4

[9] = Cytotoxicity SRB assay, HCT-116; conditions: human
Description: as §3, §4

[10] = Cytotoxicity SRB assay, HUVEC; conditions: human
Description: as §3, §4

P. falciparum lines Dd2 = conditions: line Dd2; read-out: IC50 against P. falciparum line Dd2; cited from earlier work
P. falciparum lines 3D7 = system: P. falciparum lines 3D7; parameters: method as in PMID 20429578, PMID 20429578; conditions: line 3D7; read-out: IC50 against P. falciparum line 3D7; cited from earlier work
[11] = Vero cells (mammalian kidney cell line)
[12] = BXPC-3 pancreatic carcinoma cells
[13] = HUVEC (umbilical vein endothelial cells)

Row | SMILES | pIC50 (Plasmodium falciparum) | CC50 at 48 h [1, 11] | pIC50 (Leishmania donovani) | IC50 at 72 h ([2]; HeLa cervical epithelium cells) | pIC50 [3] | IC50 at 48 h ([4]; K562 erythroleukemic cells) | IC50 at 72 h ([6]; A-549 lung carcinoma cells) | IC50 at 72 h [7, 12] | IC50 at 72 h ([8]; MCF-7 breast cancer cells) | IC50 at 72 h ([9]; HCT-116 colon carcinoma cells) | IC50 at 72 h [10, 13] | other results
1 | COc1cc2c(c(OC(=O)c3ccco3)c1)C(=O)O[C@@H](C)C/C=C/[C@H](OC(=O)c1ccco1)[C@@H](OC(=O)c1ccco1)[C@@H](OC(=O)c1ccco1)C/C=C/2 [Compound 15] | 4.65 | 1570 µM | < 4.80 |  |  |  |  |  |  |  |  | Trypanosoma cruzi IC50 (Trypanosoma cruzi): I; Toxicity (in words) (Vero cells): non-toxic
2 | COc1cc(O)c2c(c1)/C=C/C[C@@H](O)[C@H](O)C(=O)/C=C/C[C@H](C)OC2=O [Compound 3] | < 4.51 |  | 5.04 | 7.18 µM | > 5.00 | > 10 µM | > 10 µM | > 10 µM | > 10 µM | > 10 µM |  | Trypanosoma cruzi IC50 (Trypanosoma cruzi): I; Stability in protic solvents [5]: quite stable
3 | COc1cc(O)c2c(c1)/C=C/C[C@H](O)[C@H](O)C(=O)/C=C\C[C@H](C)OC2=O [Compound 7] | 4.96 | < 1 µM | 5.66 | > 10 µM | > 5.00 | > 10 µM | > 10 µM | 5.07 µM | > 10 µM | 1.09 µM | > 10 µM | 
4 | COc1cc(O)c2c(c1)/C=C/C[C@H](O)[C@H](O)[C@H](O)CCC[C@H](C)OC2=O [Paecilomycin F, paecilomycin F] |  |  |  |  |  |  |  |  |  |  |  | pIC50 (P. falciparum lines Dd2): 5.77; pIC50 (P. falciparum lines 3D7): 5.96
5 | COc1cc(O)c2c(c1)/C=C/C[C@H](O)[C@H](O)[C@@H](O)CCC[C@H](C)OC2=O [Paecilomycin E, paecilomycin E] |  |  |  |  |  |  |  |  |  |  |  | pIC50 (P. falciparum lines Dd2): 5.06; pIC50 (P. falciparum lines 3D7): 7.70
6 | COc1cc(O)c2c(c1)/C=C/C[C@H](OC(C)=O)[C@H](OC(C)=O)[C@@H](OC(C)=O)/C=C/C[C@H](C)OC2=O [Compound 12] | 5.08 | 1520 µM | 4.80 | > 10 µM |  | > 10 µM | > 10 µM | > 10 µM | > 10 µM | > 10 µM | > 10 µM | pIC50 (Trypanosoma cruzi): 4.76; Toxicity (in words) (Vero cells): non-toxic
7 | COc1cc2c(c(OC(C)=O)c1)C(=O)O[C@@H](C)C/C=C/[C@@H]1OC(C)(C)O[C@H]1[C@@H](OC(C)=O)C/C=C/2 [Compound 11] | 5.74 | 339 µM | 5.04 | > 10 µM |  | > 10 µM | > 10 µM | > 10 µM | > 10 µM | > 10 µM | > 10 µM | pIC50 (Trypanosoma cruzi): 4.92; Toxicity (in words) (Vero cells): non-toxic
8 | COc1cc(O)c2c(c1)/C=C/C[C@H]1OC(C)(C)O[C@@H]1C(=O)/C=C/C[C@H](C)OC2=O [Compound 23] | < 4.51 |  | < 4.80 |  | > 5.00 |  |  |  |  |  |  | IC50 at 72 h [2]: 6.59 µM; Trypanosoma cruzi IC50 (Trypanosoma cruzi): I; IC50 at 72 h [6]: 9.75 µM; IC50 at 72 h [10]: 7.51 µM; IC50 at 72 h [9]: 3.51 µM
9 | COc1cc(O)c2c(c1)/C=C/C[C@H](O)[C@H](O)C(=O)/C=C/C[C@H](C)OC2=O [Compound 6] | 4.83 | 3.2 µM | 5.71 | > 10 µM | > 5.00 | > 10 µM | > 10 µM | 8.47 µM | > 10 µM | > 10 µM | 8.59 µM | Stability in protic solvents [5]: subtle chemical conversion of 6 to 3–5
10 | COc1cc2c(c(OC(C)=O)c1)C(=O)O[C@@H](C)C/C=C/[C@H](OC(C)=O)[C@@H](OC(C)=O)[C@@H](OC(C)=O)C/C=C/2 [Compound 13] | 5.16 | 427 µM | < 4.80 | > 10 µM |  | > 10 µM | > 10 µM | > 10 µM | > 10 µM | > 10 µM | > 10 µM | Trypanosoma cruzi IC50 (Trypanosoma cruzi): I; Toxicity (in words) (Vero cells): non-toxic
11 | COc1cc(O)c2c(c1)/C=C/C[C@H](OC(C)=O)[C@H](OC(C)=O)C(=O)/C=C\C[C@H](C)OC2=O [Compound 27] | < 4.51 | < 1 µM | 5.50 | 3.85 µM | > 5.00 |  | 7.3 µM |  |  | 2.83 µM | 5.9 µM | 
12 | COc1cc2c(c(OC(C)=O)c1)C(=O)O[C@@H](C)C/C=C/C(=O)[C@@H](OC(C)=O)[C@@H](OC(C)=O)C/C=C/2 [Compound 21] | < 4.51 | 5.8 µM | 5.43 | 6.95 µM | > 5.00 | > 10 µM | > 10 µM | > 10 µM | > 10 µM | > 10 µM | 4.52 µM | 
13 | COc1cc(O)c2c(c1)/C=C/C[C@@H]1OC(C)(C)O[C@@H]1C(=O)/C=C/C[C@H](C)OC2=O [Compound 20] | < 4.51 |  | 5.19 |  | > 5.00 |  |  |  |  |  |  | IC50 at 72 h [2]: 7.21 µM; IC50 at 48 h [4]: > 10 µM; CC50 at 48 h [1]: < 1 µM; IC50 at 72 h [6]: > 10 µM; IC50 at 72 h [7]: > 10 µM; IC50 at 72 h [10]: 9.78 µM; IC50 at 72 h [8]: > 10 µM; IC50 at 72 h [9]: > 10 µM
14 | COc1cc(O)c2c(c1)C=CCC1OC(C)(C)OC1C(=O)C=CCC(C)OC2=O (centres unmarked) [Compound 26] | 5.05 |  | 5.91 |  | > 5.00 |  |  |  |  |  |  | IC50 at 72 h [2]: 4.02 µM; IC50 at 48 h [4]: > 10 µM; CC50 at 48 h [1]: < 1 µM; IC50 at 72 h [6]: > 10 µM; IC50 at 72 h [7]: 7.22 µM; IC50 at 72 h [10]: 4.81 µM; IC50 at 72 h [8]: > 10 µM; IC50 at 72 h [9]: 9.16 µM
